Source: patent US6689094B2, “Compound delivery using impulse transients” (priority 1996, dated 2004)

System: stratum corneum
Description: For these experiments, a Q-switched solid state ruby laser (20 ns pulse duration, capable of generating up to 2 joules per pulse) was used to generate the laser beam, which hit the target material (black polystyrene sheet about 1 mm thick) and generated a single impulse transient. Impulse transients of up to 1000 bar peak stress and 50 ns duration and with a ½ inch beam diameter can be generated with this laser-target system. The large target ensures that the impulse transients generated are plane waves, because the thickness of the coupling medium is much shorter than the diameter of the impulse transient. An articulating arm was used and the laser path was totally covered for safety.
The washer was attached onto the skin with grease. The sample filled the central opening of the washer, which was approximately ¼ inch in diameter. The target material was positioned on top of the washer and irradiated with 1 laser pulse.
The black polystyrene target completely absorbed the laser radiation so that the skin was exposed only to impulse transients, and not laser radiation. […] The skin was monitored for fluorescence of protophyrin IX thirty minutes after exposure to the impulse transients.
All fluorescence measurements were compared to the fluorescence emission of the target site on the stratum corneum before the experiments.

Structure (SMILES): NCC(=O)CCC(=O)O [ALA, 5-aminolevulenic acid]
- time for which protophyrin IX fluorescence intensity increased until maximum intensity (5% ALA in PBS, single impulse transient, skin fluorescence): approximately 4 hours
- protophyrin IX fluorescence when compound applied after the impulse transient (ALA applied on the same sites 5 minutes after impulse transients): no fluorescence emission from protophyrin IX was observed
- time post-treatment at which the fluorescence peak at about 640 nm is highest (FIG. 1, single impulse transient): 210 min
- change of skin fluorescence intensity over time without impulse transient (FIG. 2, adjacent control site, ALA applied without any impulse transients): little change in the intensity
- dependence of transdermal transport on peak stress (FIG. 3, single impulse transient at 300, 400 or 600 bar): increases with increasing peak stress
